Results from PMC9037833 (RSC Advances, 2021).

Target: T1, human A3AR (Homo sapiens, UniProt P0DMS8)
T1 sequence (P0DMS8 1-318): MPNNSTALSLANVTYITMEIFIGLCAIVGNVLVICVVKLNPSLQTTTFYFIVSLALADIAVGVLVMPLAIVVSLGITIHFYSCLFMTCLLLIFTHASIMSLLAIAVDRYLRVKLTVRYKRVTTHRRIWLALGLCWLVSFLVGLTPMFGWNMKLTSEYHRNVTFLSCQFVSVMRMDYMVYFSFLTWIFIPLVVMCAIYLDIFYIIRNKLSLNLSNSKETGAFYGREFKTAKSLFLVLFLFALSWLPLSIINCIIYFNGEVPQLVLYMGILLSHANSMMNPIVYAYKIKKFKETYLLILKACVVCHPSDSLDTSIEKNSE
Format: binding

SMILES | Ki | fold higher A3AR affinity than 8a (ratio of Ki values vs 8a at hA3AR)
CCCCCCSc1nc(N)c2ncn([C@H]3[C@H](O)[C@H](O)[C@]4(CO)C[C@H]34)c2n1 [Compound 8c, (1R,2R,3S,4R,5S)-4-(6-Amino-2-(hexylthio)-9H-purin-9-yl)-1-(hydroxymethyl)bicyclo[3.1.0]hexane-2,3-diol] | 0.548 ± 0.044 µM | 
COc1nc(N)c2ncn([C@H]3[C@H](O)[C@H](O)[C@]4(CO)C[C@H]34)c2n1 [Compound 8g, (1R,2R,3S,4R,5S)-4-(6-Amino-2-methoxy-9H-purin-9-yl)-1-(hydroxymethyl)bicyclo[3.1.0]hexane-2,3-diol] | 1.14 ± 0.084 µM | 
Nc1nc(SC2CCCCC2)nc2c1ncn2[C@H]1[C@H](O)[C@H](O)[C@]2(CO)C[C@H]12 [Compound 8d, (1R,2R,3S,4R,5S)-4-(6-Amino-2-(cyclohexylthio)-9H-purin-9-yl)-1-(hydroxymethyl)bicyclo[3.1.0]hexane-2,3-diol] | 1.08 ± 0.09 µM | 

More lines, now with the values ahead:

Ki | fold higher A3AR affinity than 8a (ratio of Ki values vs 8a at hA3AR) | SMILES
0.97 ± 0.06 µM |  | CCSc1nc(N)c2ncn([C@H]3[C@H](O)[C@H](O)[C@]4(CO)C[C@H]34)c2n1 [Compound 8b, (1R,2R,3S,4R,5S)-4-(6-Amino-2-(ethylthio)-9H-purin-9-yl)-1-(hydroxymethyl)bicyclo[3.1.0]hexane-2,3-diol]
0.0498 ± 0.0055 µM | 30 fold | Nc1nc(SCc2ccccc2)nc2c1ncn2[C@H]1[C@H](O)[C@H](O)[C@]2(CO)C[C@H]12 [Compound 8e, (1R,2R,3S,4R,5S)-4-(6-Amino-2-(benzylthio)-9H-purin-9-yl)-1-(hydroxymethyl)bicyclo[3.1.0]hexane-2,3-diol]
0.291 ± 0.089 µM |  | Nc1nc(SCCc2ccccc2)nc2c1ncn2[C@H]1[C@H](O)[C@H](O)[C@]2(CO)C[C@H]12 [Compound 8f, (1R,2R,3S,4R,5S)-4-(6-Amino-2-(phenethylthio)-9H-purin-9-yl)-1-(hydroxymethyl)bicyclo[3.1.0]hexane-2,3-diol]
